# Source: patent US10683282B2, “Multi-substituted pyrimidine derivatives with excellent kinase inhibitory activities” (KOREA INSTITUTE OF SCIENCE AND TECHNOLOGY, priority 2018, dated 2020)
# Columns and labels:
# CHO-K1 = assay: Cytotoxicity test (cell counting kit-8); format: cell-based, Chinese hamster; details: Cricetulus griseus, WST-8
# Text: (§1) Cell counting kit-8 assay is a general test method for identifying cell viability using a pale yellow tetrazolium salt called “WST-8”. WST-8, which is soluble in water, is degraded by a dehydrogenase present in the cells, forming orange formazan. Formazan dye is formed by dehydrogenase activity proportional to the number of viable cells, and thus can be used as an indicator for cell viability. The Hill equation of Graphpad Prism was used for analysis.
# JAK1 = target: T1, JAK1 (Homo sapiens, UniProt P23458); assay: Kinase screening, HotSpot assay (Reaction Biology); format: biochemical
# T1 construct: purchased Reaction Biology Corporation
# Procedure: (§2) Kinase screening was performed using a “HotSpot” assay platform method by Reaction Biology Corporation. The reaction buffer used herein contained 20 mM HEPES (pH 7.5), 10 mM MgCl2, 1 mM EGTA, 0.02% Brij35, 0.02 mg/mL BSA, 0.1 mM Na3VO4, 2 mM DTT and 1% DMSO. The required cofactors were added in accordance with the kinase reaction. Freshly made buffer and cofactors were added at a concentration of 20 μM during the selected enzyme reaction. A solution of the test compound in dimethylsulfoxide (DMSO) was added at a suitable concentration to this solution. In order to initiate reaction, […] (specific activity […]) was added and incubated at room temperature for 2 hours. The test compound was screened at a starting concentration of 20 μM in a 10-dose IC50 mode. IC50 of Staurosporine used as a control drug was obtained at a starting concentration of 20 μM in a 10-dose IC50 mode.
# ARK5/NUAK1 = target: T2, ARK5/NUAK1 (Homo sapiens, UniProt O60285); assay: Kinase screening, HotSpot assay (Reaction Biology); format: biochemical
# T2 construct: purchased Reaction Biology Corporation
# T2 sequence (O60285 1-661): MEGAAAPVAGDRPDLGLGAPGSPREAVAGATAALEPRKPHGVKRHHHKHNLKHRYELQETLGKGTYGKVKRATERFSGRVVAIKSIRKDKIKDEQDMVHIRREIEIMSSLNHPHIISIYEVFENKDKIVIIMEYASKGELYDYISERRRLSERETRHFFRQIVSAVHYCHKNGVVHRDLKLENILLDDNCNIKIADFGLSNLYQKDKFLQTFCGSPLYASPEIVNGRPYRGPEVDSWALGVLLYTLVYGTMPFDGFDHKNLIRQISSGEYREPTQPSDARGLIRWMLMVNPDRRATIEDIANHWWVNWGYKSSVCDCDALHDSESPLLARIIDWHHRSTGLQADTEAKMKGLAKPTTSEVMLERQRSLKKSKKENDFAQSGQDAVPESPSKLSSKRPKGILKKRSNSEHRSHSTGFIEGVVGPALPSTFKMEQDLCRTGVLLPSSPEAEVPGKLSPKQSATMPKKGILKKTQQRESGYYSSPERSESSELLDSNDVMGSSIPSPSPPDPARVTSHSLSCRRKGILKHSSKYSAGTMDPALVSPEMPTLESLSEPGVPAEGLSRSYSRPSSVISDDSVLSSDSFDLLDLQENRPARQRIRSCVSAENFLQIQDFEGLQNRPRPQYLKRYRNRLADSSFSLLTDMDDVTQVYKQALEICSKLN
# Procedure: as §2
# JAK2 = target: T3, JAK2 (Homo sapiens, UniProt O60674); assay: Kinase screening, HotSpot assay (Reaction Biology); format: biochemical
# T3 construct: purchased Reaction Biology Corporation
# Procedure: as §2
# ACK1 = target: T4, ACK1 (Homo sapiens, UniProt Q07912); assay: Kinase screening, HotSpot assay (Reaction Biology); format: biochemical
# T4 construct: purchased Reaction Biology Corporation
# Procedure: as §2
# JAK2(V617F) = target: T5, JAK2(V617F) (Homo sapiens, UniProt O60674, V617F); assay: Kinase screening, HotSpot assay (Reaction Biology); format: biochemical
# T5 construct: purchased Reaction Biology Corporation
# Procedure: as §2
# L929 = assay: Cytotoxicity test (cell counting kit-8); format: cell-based; details: Mus musculus, WST-8
# Text: as §1
# HFL-1 = assay: Cytotoxicity test (cell counting kit-8); format: cell-based; details: Homo sapiens, HFL1, WST-8
# Text: as §1
# NIH3T3 = assay: Cytotoxicity test (cell counting kit-8); format: cell-based; details: Mus musculus, WST-8
# Text: as §1
# FLT3 (ITD) = FLT3 (ITD) (Homo sapiens, UniProt P36888); assay: FLT3 mutant enzyme activity, HotSpot assay; format: biochemical; details: ATP 10 μM
# Procedure: as §2
# FLT3 (D835Y) = target: T6, FLT3 (D835Y) (Homo sapiens, UniProt P36888, D835Y); assay: FLT3 mutant enzyme activity, HotSpot assay; format: biochemical; details: ATP 10 μM
# T6 construct: purchased Reaction Biology Corporation
# Procedure: as §2
# FLT3 (ITD)-NPOS = FLT3 (ITD)-NPOS (Homo sapiens, UniProt P36888); assay: FLT3 mutant enzyme activity, HotSpot assay; format: biochemical; details: ATP 10 μM
# Procedure: as §2
# VERO = assay: Cytotoxicity test (cell counting kit-8); format: cell-based, African green monkey; details: Chlorocebus sabaeus, WST-8
# Text: as §1
# human CYP isozymes = assay: CYP450 assay, summary over human CYP isozymes; format: in vitro ADME; details: 10 μM
# Procedure: Compound 5 and a positive control stock solution were diluted with water to prepare a 40 μM working solution, and a solution containing an enzyme and a substrate was prepared using water and buffer. Compound 5/control/positive control and the solution were each dispensed on a 96-well and preincubated at 37° C. for 10 minutes. The resulting substance was reacted with NADPH for 20 minutes at 37° C. and a detection reagent was added to terminate the reaction. After stabilization at room temperature for 20 minutes, a luminescence signal was measured.
# T1 sequence (P23458 whole entry): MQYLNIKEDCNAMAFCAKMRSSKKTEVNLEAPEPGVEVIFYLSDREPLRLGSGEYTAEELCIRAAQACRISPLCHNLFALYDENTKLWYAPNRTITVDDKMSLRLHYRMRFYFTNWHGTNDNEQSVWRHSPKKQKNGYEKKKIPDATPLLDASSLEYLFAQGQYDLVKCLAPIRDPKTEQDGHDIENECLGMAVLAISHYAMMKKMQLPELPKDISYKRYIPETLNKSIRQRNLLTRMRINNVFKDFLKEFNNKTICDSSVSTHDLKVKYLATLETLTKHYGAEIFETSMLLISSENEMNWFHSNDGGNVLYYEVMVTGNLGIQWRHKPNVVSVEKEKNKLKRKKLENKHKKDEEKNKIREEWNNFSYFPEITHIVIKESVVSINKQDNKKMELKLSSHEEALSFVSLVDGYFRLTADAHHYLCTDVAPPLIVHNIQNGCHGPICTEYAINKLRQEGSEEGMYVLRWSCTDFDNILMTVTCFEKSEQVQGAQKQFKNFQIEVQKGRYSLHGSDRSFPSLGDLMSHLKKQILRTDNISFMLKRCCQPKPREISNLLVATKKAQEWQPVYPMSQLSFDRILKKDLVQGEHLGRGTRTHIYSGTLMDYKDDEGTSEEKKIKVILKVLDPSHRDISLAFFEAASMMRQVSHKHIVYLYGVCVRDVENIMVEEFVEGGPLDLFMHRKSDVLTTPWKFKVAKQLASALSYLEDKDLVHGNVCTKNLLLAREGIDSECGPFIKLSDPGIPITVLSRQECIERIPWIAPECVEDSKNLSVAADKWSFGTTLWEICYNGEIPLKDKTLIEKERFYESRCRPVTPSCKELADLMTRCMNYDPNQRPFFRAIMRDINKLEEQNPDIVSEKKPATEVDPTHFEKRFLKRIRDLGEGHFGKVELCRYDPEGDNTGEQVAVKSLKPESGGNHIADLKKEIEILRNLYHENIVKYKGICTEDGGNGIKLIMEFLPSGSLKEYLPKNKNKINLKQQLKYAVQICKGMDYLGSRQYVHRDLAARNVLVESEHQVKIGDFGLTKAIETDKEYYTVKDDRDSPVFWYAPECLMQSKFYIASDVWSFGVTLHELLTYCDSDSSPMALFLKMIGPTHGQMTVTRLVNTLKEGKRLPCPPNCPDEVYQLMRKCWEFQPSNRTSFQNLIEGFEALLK
# T4 sequence (Q07912 whole entry): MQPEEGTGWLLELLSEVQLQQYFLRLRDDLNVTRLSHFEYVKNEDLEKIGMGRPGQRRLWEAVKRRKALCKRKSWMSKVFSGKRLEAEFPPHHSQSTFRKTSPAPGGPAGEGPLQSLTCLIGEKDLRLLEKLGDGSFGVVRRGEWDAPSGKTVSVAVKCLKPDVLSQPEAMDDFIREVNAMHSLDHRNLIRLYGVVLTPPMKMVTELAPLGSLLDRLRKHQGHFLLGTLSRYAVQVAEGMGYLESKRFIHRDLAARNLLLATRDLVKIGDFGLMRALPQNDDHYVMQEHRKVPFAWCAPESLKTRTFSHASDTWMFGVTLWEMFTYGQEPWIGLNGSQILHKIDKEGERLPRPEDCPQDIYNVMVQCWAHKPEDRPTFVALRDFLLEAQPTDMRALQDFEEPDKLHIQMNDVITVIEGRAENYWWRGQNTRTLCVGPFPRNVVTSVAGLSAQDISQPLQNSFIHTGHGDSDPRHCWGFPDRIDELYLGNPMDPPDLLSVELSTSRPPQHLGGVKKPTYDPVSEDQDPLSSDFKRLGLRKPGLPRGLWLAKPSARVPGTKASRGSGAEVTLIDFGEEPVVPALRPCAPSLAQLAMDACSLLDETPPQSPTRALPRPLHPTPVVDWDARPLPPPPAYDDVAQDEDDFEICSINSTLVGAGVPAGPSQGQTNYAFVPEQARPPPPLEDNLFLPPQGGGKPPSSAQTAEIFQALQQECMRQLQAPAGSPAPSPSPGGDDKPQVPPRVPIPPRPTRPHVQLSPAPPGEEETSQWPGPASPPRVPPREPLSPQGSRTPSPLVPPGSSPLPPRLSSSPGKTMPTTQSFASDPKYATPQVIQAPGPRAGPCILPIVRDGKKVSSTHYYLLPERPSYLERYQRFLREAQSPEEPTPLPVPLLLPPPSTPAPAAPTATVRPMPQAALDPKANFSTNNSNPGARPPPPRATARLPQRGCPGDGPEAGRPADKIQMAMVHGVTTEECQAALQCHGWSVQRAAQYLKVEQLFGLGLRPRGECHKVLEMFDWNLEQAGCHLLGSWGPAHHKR
# T3 sequence (O60674 whole entry): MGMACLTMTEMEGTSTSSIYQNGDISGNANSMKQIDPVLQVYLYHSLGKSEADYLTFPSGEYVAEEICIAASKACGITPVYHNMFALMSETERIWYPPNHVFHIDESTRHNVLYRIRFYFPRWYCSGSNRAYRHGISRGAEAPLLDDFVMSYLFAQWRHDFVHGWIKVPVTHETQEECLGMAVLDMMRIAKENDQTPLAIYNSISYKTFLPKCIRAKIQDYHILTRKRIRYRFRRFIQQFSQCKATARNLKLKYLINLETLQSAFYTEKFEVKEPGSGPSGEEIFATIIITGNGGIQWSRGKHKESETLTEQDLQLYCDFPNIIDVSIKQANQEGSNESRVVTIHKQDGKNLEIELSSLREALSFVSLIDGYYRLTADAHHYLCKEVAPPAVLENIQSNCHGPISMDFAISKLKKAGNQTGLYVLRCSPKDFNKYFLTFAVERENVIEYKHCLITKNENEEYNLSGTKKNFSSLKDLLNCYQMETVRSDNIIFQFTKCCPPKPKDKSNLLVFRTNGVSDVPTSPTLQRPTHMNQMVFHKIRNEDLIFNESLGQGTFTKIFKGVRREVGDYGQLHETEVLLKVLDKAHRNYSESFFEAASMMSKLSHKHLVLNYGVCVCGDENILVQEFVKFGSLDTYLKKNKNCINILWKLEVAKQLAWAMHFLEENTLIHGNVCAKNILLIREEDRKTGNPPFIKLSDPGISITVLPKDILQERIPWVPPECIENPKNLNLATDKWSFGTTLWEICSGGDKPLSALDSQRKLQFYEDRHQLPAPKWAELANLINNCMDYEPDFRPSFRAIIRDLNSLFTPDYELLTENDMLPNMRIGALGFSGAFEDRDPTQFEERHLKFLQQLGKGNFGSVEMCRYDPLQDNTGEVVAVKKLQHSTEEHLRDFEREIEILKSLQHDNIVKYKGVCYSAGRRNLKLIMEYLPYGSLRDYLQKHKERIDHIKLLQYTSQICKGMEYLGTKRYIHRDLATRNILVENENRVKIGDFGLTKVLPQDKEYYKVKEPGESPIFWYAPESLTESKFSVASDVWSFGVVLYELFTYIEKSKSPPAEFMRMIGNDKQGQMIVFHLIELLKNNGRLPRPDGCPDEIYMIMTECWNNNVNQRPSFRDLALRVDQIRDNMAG
# T5 sequence (O60674 whole entry V617F): as the sequence (O60674 whole entry) above, with V617F counted along it
smiles,measurement,setting,value
"Clc1cnc(Nc2ccc(OCCN3CCCC3)cc2)nc1NCc1ccco1 [Compound 5, 5-chloro-4-(furan-2-yl)methylamino-2-[4-{2-(pyrrolidin-1-yl)ethoxy}phenylamino]pyrimidine]",IC50,CHO-K1,> 100 µM
same,IC50,JAK1,0.0161 µM
same,IC50,ARK5/NUAK1,0.0024 µM
same,IC50,JAK2,0.00885 µM
same,IC50,ACK1,0.0513 µM
same,IC50,JAK2(V617F),0.0256 µM
same,IC50,L929,40.3 µM
same,IC50,HFL-1,35.6 µM
same,IC50,NIH3T3,> 100 µM
same,IC50,FLT3 (ITD),0.0015 µM
same,IC50,FLT3 (D835Y),< 0.001 µM
same,IC50,FLT3 (ITD)-NPOS,0.0045 µM
same,IC50,VERO,19.7 µM
same,CYP inhibition conclusion (more than 50% inhibition needs attention),human CYP isozymes,stable
